We go through two molecules from US6340770B1, “Platinum (IV) complex used as anti-cancer agent and preparing method thereof” (Sook Myung Women's University, priority 1999, dated 2002).

In data set [1] the test system is L1210 cells. The data set is described as follows: MTT assay, anti-cancer activity on L1210 cells in vitro. It is filed as cell-based, mice. Conditions: L1210 cell. The method, then:
(§1) In order to examine anti-cancer activity of Pt(IV) complexes according to the present invention, MTT, i.e., [3-(4,5-dimethylthiazol-2-yl)-2,5-diphenyltetrazolium bromide] assay was performed on HL60 and L1210 which are leukemic cell of human and mice, respectively.
(§2) MTT assay is a quantitative color analysis based on that mitochondrial dehydrogenase, one of cell enzymes, changes yellow water-soluble MTT into deep-blue water-insoluble formazan, and the amount of the generated formazan is proportioned to active cell numbers.^122-124)
(§3) HL60 and L1210, suspended leukemic cells of humans and mice, respectively are used as cancer cells for determining the anti-cancer activity of the Pt (IV) complex according to the above Examples. They were obtained by cultivating the frozen cells alloted from Korean Cell Line Bank.
(§4) Cells were subject to subculture at the interval of 2-3 days at 37° C. in the presence of 5% CO2 in RPMI 1640 culture medium controlled to contain 1% penicillin-streptomycin (10,000 unit/ml) and 10% FBS, with keeping the cell number between 2×10^5/ml-5×10^5/ml.
(§5) Pt (IV) complexes prepared by the Examples of the present invention were used as pharmaceutical compounds. Among them, a water-soluble compound was used as it was, and a water-insoluble compound was used after dissolving in DMSO or 95% ethanol, adding PBS to be 2 mM concentarion, filtering with 0.2μ syringe filter to be sterile state and performing serial-dilution with a culture medium to control predetermined concentrations. The final concentration of DMSO or 95% ethanol in cell culture medium was controlled to be below 0.1%.
HL60 and L1210 cells were put into 96-well plate in the amount of 10^4/well and then stabilized for a half hour at 37° C. in the presence of 5% CO2.
(§6) After cultivating HL60 cell at 37° C. in the presence of 5% CO2 for 72 hours and L1210 for 48 hours, MTT reagent (2 mg/ml) was added 50 μl/well, and an additional cultivation was performed at 37° C. in the presence of 5% CO2 for 4 hours. Then, after centrifuging the resultant at 2000 rpm for 5 minites, the supernatant was removed by 170 μl/well.
(§7) Then, after adding DMSO 150 μl/well, the resultant was laid at 40° C. for 30 minutes and stirred for 3 minutes. Then, absorption test using ELISA reader was performed at 570 nm.
(§8) For calibration, a blank test was performed on the same 96-well plate under the same condition.
(§9) The above-described experiment was performed on more than 3 wells under the same condition with different concentration, and the same experiment was repeated over 3 times.

Another data set deals with male ICR mice. Put plainly: Nephrotoxicity test, serologic analysis (BUN, creatinine, uric acid) after i.p. injection. Set-up: unit not given here. Type of data set: in vivo. The settings on record: serum, dose 8x IC50 (cisplatin 7x IC50), average ± SD of 5-6 ICR mice. The method, then:
In order to serologically analyze nephrotoxicity of various Pt complexes, after injecting each agent intraperitneally, blood was exsanguinated after 6 hours, 1 day, 3 days and 7 days, respectively. Then, serum was seperated f rom the blood to detect the values of BUN (Blood urea nitrogen), creatinine and uric acid.^133)
As an experimental animal, male ICR mice each weighing about 25 g were purchased from Korean Experimental Animal Center. The experimental animals were bred in SPF(Specific Pathogen Free) room in Medical School of HanYang University, and food (purchased from SamYang) and water were supplied unrestrictedly.
The experimental animals were divided into a normal control group, a control group and an experimental group, and the experimental group was again divided into a cisplatin dispensing group, a 7(Ac)Cl treated group, a 7(TF)Cl treated group, a 7(Ac)M treated group, a 7(TF)M treated group and a 7FMN treated group.
Each groups comprised 20-22 mice, and each group was again divided into a 6 hour-treating group, a 1 day-treating group, a 3 day-treating group and a 7 day-treating group, which contains 5-6 mice, respectively.
First, a predetermined amount of agent was dissolved in DMSO or ethanol, and then PBS was added thereto to make the total volume be 6.6 ml. At this time, the content of DMSO or ethanol was controlled to be below 5%.
The agent dissolved in PBS was filtered using 0.2μ syringe filter, sterilized, and injected into intraperitoneally. Then, after 6 hours, 1 day, 3 days and 7 days, exsanguination was performed.
After seperating serum by centrifuging the blood exsanguinated from mice at 4,500 rpm for 15 minutes, the serum was kept at the temperature −20° C. BUN (Blood urea nitrogen), creatinine and uric acid were detected using a biochemical automatic analyzing apparatus (Olympus reply, Japan) and average and standard deviation were calculated from the obtained data.
Control group was dissolved in PBS and injected in dose of 6.6 ml/Kg.

In data set [2] the test system is proximal renal tubule cells. Put plainly: Nephrotoxicity test, electron microscopic findings (TEM) of proximal renal tubule. It is filed as in vivo, mice. The method, then: In order to observe the ultra-structural changes of proximal renal tubule cells, a part of renal cortex of kidney was finely cut in the size of 1 mm^3, pre-fixed with 2% glutaraldehyde-2.5% paraformaldehyde solution, which is prepared with Millonig's phosphate buffer (pH 7.2) at 4° C. for 2-4 hours, and post-fixed with 1% osmium tetroxide for 2 hours, which is diluted with the same buffer solution. Then, after dehydrating the specimen according to ethanol-acetone concentration difference and embeding in Epon 812, it was made to be 2-5 μm thickness in thin section using ultramicrotome and temporarily stained with methylene blue to determine a proper site. Then, it was prepared tobe 60-80 nm thickness of the ultra-thin section, subject to double-staining with uranyl acetate and lead citrate, and observed with TEM (transmission electron microscope; Hitachi-600, Japan).

The next data set relates to HL60 cells. The data set is described as follows: MTT assay, anti-cancer activity on HL60 cells in vitro. Type of data set: cell-based, human. The settings on record: HL60 cell. The method, then: as §1, §2, §3, §4, §5
HL60 and L1210 cells were put into 96-well plate in the amount of 10^4/well and then stabilized for a half hour at 37° C. in the presence of 5% CO2. […]
as §6, §7, §8, §9
(Tetrazolium assays rely on reduction of a dye to a coloured formazan, in cell work by metabolically active cells.)

Data set [3] relates to L1210 cells. The settings on record: literature value (J. Med. Chem. 1994, vol.37, No.10, 1471-1485); cited from earlier work.
The mark [4] stands for this setting: 1 Day after single i.p. injection.
The mark [5] stands for this setting: 7 Day after single i.p. injection.
[6] abbreviates: 6 hour after single i.p. injection.
The mark [7] stands for this setting: 3 day after single i.p. injection.

With `O=C([O][Pt]1([Cl])([Cl])([O]C(=O)C(F)(F)F)[NH]CCCC[NH]1)C(F)(F)F` [7(TF)Cl, trans, cis-ditriflioroacetato,dichloro-1,4-butanediamine Pt(IV) complex], the “anti-cancer activity (IC50) compared with cisplatin, in words” value in the data set with L1210 cells [1] was “superior to cisplatin(CDDP)”; with HL60 cells it was “superior to that of cisplatin”. The “BUN after the 1st time injection” value in the data set with male ICR mice (setting [4]) came out at 23.1 ± 3.3; in the data set on male ICR mice (setting [5]), 20.7 ± 3.5; in the data set with male ICR mice (setting [6]) it was 28.8 ± 6.4; in the data set on male ICR mice (setting [7]), 18.1 ± 2.3. The “Uric acid after the 1st time injection” value is 1.82 ± 0.5 in the data set with male ICR mice (setting [4]), 1.88 ± 0.3 with male ICR mice (setting [5]), 2.2 ± 0.9 in the data set with male ICR mice (setting [6]) and 2.22 ± 0.7 in the data set on male ICR mice (setting [7]). The figures for the “ultra-structural changes of proximal renal tubule epithelial cells (TEM)” value in data set [2] (sacrificed 6 hours after i.p. injection) and in data set [2] (sacrificed 3 days after i.p. injection) were “seriously damaged findings” and “most of cytoplasmic organelles were damaged”, respectively.
As for `[NH2][Pt]1([NH2])[O]C(=O)C2(CCC2)C(=O)[O]1` [carboplatin, cis-diamine(1,1-cyclobutanedicarboxylato)platinum(II)], in the data set on L1210 cells [3], the “IC50 relative to that of cisplatin” value is listed as “about 10 times”.
